Results on 13 compounds are retold here after patent US9676701B2, “Cyclopropylamine derivatives useful as LSD1 inhibitors” (Oryzon Genomics, S.A., priority 2010, dated 2017).

Structures are written as SMILES. Structures can show the parent of a compound that is named as a salt.

One experiment has as its target MAO-A (Homo sapiens (Human), UniProt P21397). Conditions: read-out: MAO-A (Ki).
A further experiment has as its target MAO-B (Homo sapiens (Human), UniProt P27338). The conditions noted are these: read-out: MAO-B (Ki).
Experiment [1] concerns the target Human recombinant LSD1 protein (Homo sapiens (Human), UniProt O60341). Nature of the experiment: biochemical.
Text: The ability of the compounds of the invention to inhibit LSD1 can be tested as follows. Human recombinant LSD1 protein was purchased from BPS Bioscience Inc. In order to monitor LSD1 enzymatic activity and/or its inhibition rate by our inhibitor(s) of interest, di-methylated H3-K4 peptide (Millipore) was chosen as a substrate. The demethylase activity was estimated, under aerobic conditions, by measuring the release of H2O2 produced during the catalytic process, using the Amplex® Red peroxide/peroxidase-coupled assay kit (Invitrogen).
Within the experiment, each concentration of inhibitor was tested in triplicate. […] The enzymatic reactions were set up in a 50 mM sodium phosphate, pH 7.4 buffer. At the end of the incubation, Amplex® Red reagent and horseradish peroxidase (HPR) solution were added to the reaction according to the recommendations provided by the supplier (Invitrogen), and left to incubate for 30 extra minutes at room temperature in the dark. A 1 μM H2O2 solution was used as a control of the kit efficiency.
The Ki (IC50) of each inhibitor was estimated at half of the maximum activity.

Chain of MAO-A (P21397 whole entry): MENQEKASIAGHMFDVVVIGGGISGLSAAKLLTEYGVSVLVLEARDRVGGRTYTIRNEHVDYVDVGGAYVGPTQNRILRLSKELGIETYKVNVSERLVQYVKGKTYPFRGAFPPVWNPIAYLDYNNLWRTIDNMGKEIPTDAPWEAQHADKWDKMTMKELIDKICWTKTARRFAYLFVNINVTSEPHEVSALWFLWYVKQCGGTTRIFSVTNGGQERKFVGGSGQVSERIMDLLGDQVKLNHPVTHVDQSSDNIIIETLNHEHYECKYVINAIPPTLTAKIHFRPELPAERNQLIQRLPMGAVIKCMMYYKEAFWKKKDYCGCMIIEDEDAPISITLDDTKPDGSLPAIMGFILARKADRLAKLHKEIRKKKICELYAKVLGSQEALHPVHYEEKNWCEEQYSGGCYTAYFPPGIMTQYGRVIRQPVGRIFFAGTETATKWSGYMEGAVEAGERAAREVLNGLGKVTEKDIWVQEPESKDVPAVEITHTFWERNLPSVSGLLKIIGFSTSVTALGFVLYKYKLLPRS
Chain of MAO-B (P27338 whole entry): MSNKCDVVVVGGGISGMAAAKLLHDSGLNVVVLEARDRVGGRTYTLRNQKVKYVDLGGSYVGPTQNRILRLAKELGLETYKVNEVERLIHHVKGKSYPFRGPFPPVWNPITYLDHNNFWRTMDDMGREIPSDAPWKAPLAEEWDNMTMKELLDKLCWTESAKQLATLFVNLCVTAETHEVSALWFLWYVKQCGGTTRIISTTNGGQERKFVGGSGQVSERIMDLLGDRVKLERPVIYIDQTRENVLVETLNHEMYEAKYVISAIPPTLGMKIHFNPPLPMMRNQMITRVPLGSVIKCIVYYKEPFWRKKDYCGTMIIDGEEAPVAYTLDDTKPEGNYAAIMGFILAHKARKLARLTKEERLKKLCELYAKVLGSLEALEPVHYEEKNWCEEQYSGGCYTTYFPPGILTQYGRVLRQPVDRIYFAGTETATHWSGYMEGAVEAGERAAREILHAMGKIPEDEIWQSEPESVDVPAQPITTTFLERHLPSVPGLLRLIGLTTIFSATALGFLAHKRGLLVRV

Take `N[C@H]1C[C@@H]1c1ccc(-c2cccc(C(F)(F)F)c2F)nc1` (relative stereo) [Example 30, (trans)-2-(6-(2-fluoro-3-(trifluoromethyl)phenyl)pyridin-3-yl)cyclopropanamine hydrochloride]: the Ki on MAO-A fell in the range of 1 to 40 µM; at MAO-B, 1 to 40 µM; in experiment [1] it was 0.1 to 1 µM.

Regarding `N[C@H]1C[C@@H]1c1ccc(-c2ccc(F)c(O)c2)cc1` (relative stereo) [Example 66, 4′-((trans)-2-aminocyclopropyl)-4-fluorobiphenyl-3-ol hydrochloride], the inhibition constant (Ki) in experiment [1] was 0.001 to 0.1 µM.

For the compound `N[C@H]1C[C@@H]1c1ccc(-c2cc(O)c(F)c(F)c2)nc1` (relative stereo) [Example 59, 5-(5-((trans)-2-aminocyclopropyl)pyridin-2-yl)-2,3-difluorophenol hydrochloride], the Ki at MAO-B fell in the range of 1 to 40 µM; in experiment [1], 0.001 to 0.1 µM.

As for `N[C@H]1C[C@@H]1c1ccc(-c2cc(O)cc(Cl)c2)nc1` (relative stereo) [Example 29, 3-(5-((trans)-2-aminocyclopropyl)pyridin-2-yl)-5-chlorophenol hydrochloride], the results for the Ki (at MAO-A; at MAO-B; in experiment [1]) were 1 to 40 µM, 1 to 40 µM and 0.001 to 0.1 µM, respectively.

As to `N[C@H]1C[C@@H]1c1ccc(-c2ccc(F)c(O)c2)nc1` (relative stereo) [Example 23, 5-(5-((trans)-2-aminocyclopropyl)pyridin-2-yl)-2-fluorophenol hydrochloride], the inhibitory constant (Ki) at MAO-A lay in the range of 1 to 40 µM; at MAO-B, 1 to 40 µM; in experiment [1] it was 0.001 to 0.1 µM.

Turning to `N[C@H]1C[C@@H]1c1ccc(-c2cc(O)ccc2Cl)nc1` (relative stereo) [Example 47, 3-(5-((trans)-2-aminocyclopropyl)pyridin-2-yl)-4-chlorophenol hydrochloride], the Ki lay in the range of 1 to 40 µM on MAO-A, 1 to 40 µM at MAO-B and 0.1 to 1 µM in experiment [1].

In the case of `CCS(=O)(=O)Nc1cccc(-c2ccc([C@H]3C[C@@H]3N)cn2)c1` (relative stereo) [Example 98, N-(3-(5-((trans)-2-aminocyclopropyl)pyridin-2-yl)phenyl)ethanesulfonamide hydrochloride], the figures for the Ki (at MAO-A; on MAO-B; in experiment [1]) were 1 to 40 µM, 1 to 40 µM and 0.001 to 0.1 µM, respectively.

For `NC(=O)c1cccc(-c2ccc([C@H]3C[C@@H]3N)cn2)c1` (relative stereo) [Example 19, 3-(5-((trans)-2-aminocyclopropyl)pyridin-2-yl)benzamide hydrochloride], the Ki on MAO-A was 1 to 40 µM; at MAO-B, 1 to 40 µM; in experiment [1], 0.1 to 1 µM.

On to `N[C@H]1C[C@@H]1c1ccc(-c2ccc(Cl)s2)nc1` (relative stereo) [Example 31, (trans)-2-(6-(5-chlorothiophen-2-yl)pyridin-3-yl)cyclopropanamine hydrochloride], for which the Ki on MAO-A lay within 1 to 40 µM; at MAO-B it was 1 to 40 µM; in experiment [1] it was 0.001 to 0.1 µM.

Turning to `CC(C)S(=O)(=O)Nc1cccc(-c2ccc([C@H]3C[C@@H]3N)cc2)c1` (relative stereo) [Example 69, N-(4′-((trans)-2-aminocyclopropyl)biphenyl-3-yl)propane-2-sulfonamide hydrochloride], in experiment [1], the Ki lay within 0.001 to 0.1 µM.

Consider `N[C@H]1C[C@@H]1c1ccc(-c2cc(O)cc(Cl)c2)cc1` (relative stereo) [Example 67, 4′-((trans)-2-aminocyclopropyl)-5-chlorobiphenyl-3-ol hydrochloride], for which, in experiment [1], the Ki is 0.001 to 0.1 µM.

Regarding `N[C@H]1C[C@@H]1c1ccc(-c2cccc(NS(=O)(=O)C(F)(F)F)c2)cc1` (relative stereo) [Example 103, N-(4′-((trans)-2-aminocyclopropyl)-[1,1′-biphenyl]-3-yl)-1,1,1-trifluoromethanesulfonamide hydrochloride], the Ki in experiment [1] lay within 0.1 to 1 µM.

Turning to `N[C@H]1C[C@@H]1c1ccc(-c2cccc(NS(=O)(=O)c3ccccc3)c2)cc1` (relative stereo) [Example 68, N-(4′-((trans)-2-aminocyclopropyl)biphenyl-3-yl)benzenesulfonamide hydrochloride], the inhibition constant Ki in experiment [1] is 0.001 to 0.1 µM.

What is called Ki is the equilibrium dissociation constant of an inhibitor or competing ligand from its target.
